Format in all cases: biochemical
The target of one assay is Maltase. Briefly: α-glucosidase inhibition, rat small intestinal brush border membrane, maltose substrate. The following applies: rat small intestine brush border membrane; maltose (74 mM); 0.1M maleate buffer (pH6.0); 37° C. for 30 minutes. As for the experimental part: (§1) Brush border membrane follicles of rat's small intestine were prepared in accordance with the literature (Kessler, M. et al., Biochem. Biophys. Act, 1978, 506, 136), and a suspension of the follicles in 0.1M maleate buffer (pH6.0) was used as an intraintestinal α-glucosidase (maltase, sucrose and isomaltase).
A compound to be tested was dissolved in methylsulfoxide (DMSO) and the resulting solution was diluted with 0.1M maleate buffer to prepare a solution of the testing compound (DMSO concentration: 10%). A solution of a substrate (sucrose (74 mM), maltose (74 mM) or isomaltose (74 mM, […]) in the maleate buffer, a solution (25 μl) of the testing compound and the enzyme solution (25 μl) were mixed and the resulting solution was incubated at 37° C. for 30 minutes. Immediately after incubation, the resulting solution was heated by boiling water to terminate the reaction and mixed with water (150 μl). The concentration of glucose was measured by glucose oxidase method. The final concentration of DMSO in the testing solution was set to 2.5%, and no influence of DMSO on an inhibitory activity was detected. A 50% inhibitory concentration (IC50) was computed from the measured values.

The next assay has as its target T1, Isomaltase (Rattus norvegicus, UniProt P23739).
T1 construct: Brush border membrane follicles of rat's small intestine were prepared; from tissue; host or cells: rat small intestine brush border membrane vesicles
Description: α-glucosidase inhibition, rat small intestinal brush border membrane, isomaltose substrate. The settings on record: rat small intestine brush border membrane; isomaltose (74 mM); 0.1M maleate buffer (pH6.0); 37° C. for 30 minutes. As for the experimental part:
as §1
(§2) A compound to be tested was dissolved in methylsulfoxide (DMSO) and the resulting solution was diluted with 0.1M maleate buffer to prepare a solution of the testing compound (DMSO concentration: 10%). […] A 50% inhibitory concentration (IC50) was computed from the measured values.

For another assay, the target named is T2, Sucrase (Rattus norvegicus, UniProt P23739).
T2 construct: Brush border membrane follicles of rat's small intestine were prepared; from tissue; host or cells: rat small intestine brush border membrane vesicles
T2 sequence (P23739 whole entry): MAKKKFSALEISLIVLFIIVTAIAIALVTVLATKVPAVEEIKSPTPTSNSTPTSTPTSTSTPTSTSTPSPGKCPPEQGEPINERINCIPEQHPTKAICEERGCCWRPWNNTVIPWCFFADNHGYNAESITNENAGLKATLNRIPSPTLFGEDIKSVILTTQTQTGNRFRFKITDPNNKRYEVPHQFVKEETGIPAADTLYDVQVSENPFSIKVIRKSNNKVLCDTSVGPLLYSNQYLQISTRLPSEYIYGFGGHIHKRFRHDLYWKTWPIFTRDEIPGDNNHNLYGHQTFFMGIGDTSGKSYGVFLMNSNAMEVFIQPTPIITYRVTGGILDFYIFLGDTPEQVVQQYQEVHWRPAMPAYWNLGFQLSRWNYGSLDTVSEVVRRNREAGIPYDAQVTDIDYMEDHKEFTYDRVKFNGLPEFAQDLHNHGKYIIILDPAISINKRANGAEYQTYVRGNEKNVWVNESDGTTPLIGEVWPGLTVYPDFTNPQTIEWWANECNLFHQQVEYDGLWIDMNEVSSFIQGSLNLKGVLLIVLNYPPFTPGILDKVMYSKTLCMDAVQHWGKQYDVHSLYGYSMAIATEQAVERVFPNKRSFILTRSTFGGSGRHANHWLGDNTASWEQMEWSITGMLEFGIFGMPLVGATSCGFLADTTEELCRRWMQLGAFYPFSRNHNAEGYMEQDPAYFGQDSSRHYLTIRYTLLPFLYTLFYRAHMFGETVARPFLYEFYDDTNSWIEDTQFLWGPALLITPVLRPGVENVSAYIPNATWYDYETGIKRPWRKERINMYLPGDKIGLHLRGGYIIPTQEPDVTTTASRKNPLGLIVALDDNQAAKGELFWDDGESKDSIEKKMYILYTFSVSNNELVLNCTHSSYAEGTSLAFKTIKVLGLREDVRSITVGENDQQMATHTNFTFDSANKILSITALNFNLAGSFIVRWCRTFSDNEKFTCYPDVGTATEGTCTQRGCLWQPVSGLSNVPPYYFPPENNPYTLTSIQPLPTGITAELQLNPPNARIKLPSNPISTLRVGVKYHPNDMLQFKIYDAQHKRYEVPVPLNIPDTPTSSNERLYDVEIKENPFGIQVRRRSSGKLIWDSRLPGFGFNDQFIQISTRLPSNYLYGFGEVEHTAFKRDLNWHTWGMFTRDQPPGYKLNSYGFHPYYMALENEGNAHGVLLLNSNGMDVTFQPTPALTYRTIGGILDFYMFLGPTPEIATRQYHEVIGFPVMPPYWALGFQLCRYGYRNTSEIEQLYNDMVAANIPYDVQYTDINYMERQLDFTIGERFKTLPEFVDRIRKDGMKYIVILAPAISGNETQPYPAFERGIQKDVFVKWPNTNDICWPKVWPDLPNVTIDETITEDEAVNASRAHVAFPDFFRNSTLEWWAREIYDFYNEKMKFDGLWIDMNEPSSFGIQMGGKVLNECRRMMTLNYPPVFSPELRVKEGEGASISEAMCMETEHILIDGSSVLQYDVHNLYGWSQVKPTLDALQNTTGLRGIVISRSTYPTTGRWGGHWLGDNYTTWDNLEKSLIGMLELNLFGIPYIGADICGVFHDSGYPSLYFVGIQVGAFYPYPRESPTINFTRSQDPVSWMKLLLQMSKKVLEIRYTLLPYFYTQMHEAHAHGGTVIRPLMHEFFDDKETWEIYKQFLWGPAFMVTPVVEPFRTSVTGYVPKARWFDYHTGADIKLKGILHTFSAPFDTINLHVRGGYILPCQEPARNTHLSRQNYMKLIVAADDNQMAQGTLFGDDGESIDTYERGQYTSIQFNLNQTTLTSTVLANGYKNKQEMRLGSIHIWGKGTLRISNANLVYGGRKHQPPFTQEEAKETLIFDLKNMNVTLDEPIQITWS
Briefly: α-glucosidase inhibition, rat small intestinal brush border membrane, sucrose substrate. The settings on record: rat small intestine brush border membrane; sucrose (74 mM); 0.1M maleate buffer (pH6.0); 37° C. for 30 minutes. As to the method: as §1, §2

The structures appear in SMILES notation.

T1 sequence (P23739 whole entry): as above

As for `CCCCCOC(CO)C(O)C[S+]1CC(O)C(O)C1CO` [Compound (Ic), 1,4-Dideoxy-1,4-[(R)-[4-deoxy-2-O-(1-pentyl)-D-erythritol-4-yl]episulfoniumylidene]-D-arabitol chloride], on Maltase, the “α-glucosidase (IC50) Maltase” value came out at 1.52 µg/mL. The half-maximal inhibitory concentration (IC50) (commonly the midpoint of a concentration-inhibition curve) at Isomaltase is 1.44 µM; against Sucrase, 1.54 µM.

Take `OCc1ccc(COC(CO)C(O)C[S+]2CC(O)C(O)C2CO)cc1` [Compound (Iw), 1,4-Dideoxy-1,4-[(R)-[4-deoxy-2-O-(p-hydroxymethyl)benzyl)-D-erythritol-4-yl]episulfoniumylidene]-D-arabitol chloride]: the “α-glucosidase (IC50) Maltase” value at Maltase was 1 µg/mL. In addition, the IC50 against Isomaltase was 0.799 µM; on Sucrase, 2.13 µM.

Turning to `O=S(=O)([O-])OC(CO)C(O)C[S+]1CC(O)C(O)C1CO` (stereo not shown) [Salacinol, salacinol, reference compound], the “α-glucosidase (IC50) Maltase” value on Maltase came to 5.2 µg/mL. Further, the IC50 was 3.89 µM against Isomaltase and 4.79 µM on Sucrase.

On to `F[B-](F)(F)F.OC[C@H](OCc1ccccc1)[C@H](O)C[S@+]1C[C@@H](O)[C@H](O)[C@H]1CO` [Compound (Ig) (X = BF4), 1,4-dideoxy-1,4-[(R)-[2-O-benzyl-4-deoxy-D-erythritol-4-yl]episulfoniumylidene]-D-arabitol tetrafluoroborate], for which the “α-glucosidase (IC50) Maltase” value on Maltase was found to be 0.44 µg/mL. Further, the “α-glucosidase (IC50) Isomaltase” value on Isomaltase came out at 0.12 µg/mL. The “α-glucosidase (IC50) Sucrase” value on Sucrase was 0.32 µg/mL.

In the case of `OCC(OCc1ccccc1Cl)C(O)C[S+]1CC(O)C(O)C1CO` [Compound (Ik), 1,4-Dideoxy-1,4-[(R)-[2-O-(o-chlorobenzyl)-4-deoxy-D-erythritol-4-yl]episulfoniumylidene]-D-arabitol chloride], at Maltase, the “α-glucosidase (IC50) Maltase” value was 0.31 µg/mL. Further, the figures for the half-inhibitory concentration (IC50) on Isomaltase and against Sucrase were 0.684 µM and 0.237 µM, respectively.

With `OCC(OCc1ccc(C(F)(F)F)cc1)C(O)C[S+]1CC(O)C(O)C1CO` [Compound (Is), 1,4-Dideoxy-1,4-[(R)-[4-deoxy-2-O-(p-trifluoromethylbenzyl)-D-erythritol-4-yl]episulfoniumylidene]-D-arabitol chloride], the “α-glucosidase (IC50) Maltase” value on Maltase is 0.98 µg/mL. Besides, the IC50 is 0.919 µM against Isomaltase and 1.35 µM at Sucrase.

Turning to `COC(CO)C(O)C[S+]1CC(O)C(O)C1CO` [Compound (Ia), 1,4-Dideoxy-1,4-[(R)-[4-deoxy-2-O-methyl-D-erythritol-4-yl]episulfoniumylidene]-D-arabitol chloride], the “α-glucosidase (IC50) Maltase” value on Maltase was determined as 5.3 µg/mL. For the same molecule, the IC50 is 1.45 µM against Isomaltase and 1.71 µM against Sucrase.

`CCOC(CO)C(O)C[S+]1CC(O)C(O)C1CO` [Compound (Ib), 1,4-Dideoxy-1,4-[(R)-[4-deoxy-2-O-ethyl-D-erythritol-4-yl]episulfoniumylidene]-D-arabitol chloride]: the IC50 was 0.953 µM against Isomaltase and 0.423 µM against Sucrase.

Turning to `OCC(OCc1cccc(Cl)c1)C(O)C[S+]1CC(O)C(O)C1CO` [Compound (Il), 1,4-Dideoxy-1,4-[(R)-[2-O-(m-chlorobenzyl)-4-deoxy-D-erythritol-4-yl]episulfoniumylidene]-D-arabitol chloride], the “α-glucosidase (IC50) Maltase” value on Maltase was 0.53 µg/mL. Also, the results for the IC50 against Isomaltase and against Sucrase were 0.816 µM and 2.11 µM, respectively.

Turning to `Cc1cccc(COC(CO)C(O)C[S+]2CC(O)C(O)C2CO)c1` [Compound (Ii), 1,4-Dideoxy-1,4-[(R)-[4-deoxy-2-O-(m-methylbenzyl)-D-erythritol-4-yl]episulfoniumylidene]-D-arabitol chloride], the “α-glucosidase (IC50) Maltase” value at Maltase is 0.84 µg/mL. Also, the half-maximal inhibitory concentration (IC50) on Isomaltase was 0.974 µM; against Sucrase it was 3.62 µM.

`CC(C)(C)COC(CO)C(O)C[S+]1CC(O)C(O)C1CO` [Compound (If), 1,4-Dideoxy-1,4-[(R)-[4-deoxy-2-O-neopentyl-D-erythritol-4-yl]episulfoniumylidene]-D-arabitol chloride]: at Maltase, the “α-glucosidase (IC50) Maltase” value came out at 0.3 µg/mL. Further, the IC50 against Isomaltase was 0.86 µM; against Sucrase it was 0.277 µM.

Take `OCC(CO)N[C@H]1C[C@](O)(CO)[C@@H](O)[C@H](O)[C@H]1O` [voglibose, reference compound]: the figures for the IC50 against Isomaltase and against Sucrase were 7.86 µM and 0.823 µM, respectively.

On to `O=[N+]([O-])c1ccc(COC(CO)C(O)C[S+]2CC(O)C(O)C2CO)cc1` [Compound (Iv), 1,4-Dideoxy-1,4-[(R)[4-deoxy-2-O-(p-nitrobenzyl)-D-erythritol-4-yl]episulfoniumylidene]-D-arabitol chloride], for which, at Maltase, the “α-glucosidase (IC50) Maltase” value was found to be 0.68 µg/mL. Also, the IC50 is 0.589 µM against Isomaltase and 0.973 µM on Sucrase.

Turning to `OCC(OCc1ccc(Cl)cc1)C(O)C[S+]1CC(O)C(O)C1CO` [Compound (Im), 1,4-Dideoxy-1,4-[(R)-[2-O-(p-chlorobenzyl)-4-deoxy-D-erythritol-4-yl]episulfoniumylidene]-D-arabitol chloride], the “α-glucosidase (IC50) Maltase” value on Maltase is 0.89 µg/mL. Further, the IC50 against Isomaltase was 1.79 µM; against Sucrase it was 1.9 µM.

In the case of `CCCCCCCCCCCCCOC(CO)C(O)C[S+]1CC(O)C(O)C1CO` [Compound (Ie), 1,4-Dideoxy-1,4-[(R)-[4-deoxy-2-O-(1-tridecyl)-D-erythritol-4-yl]episulfoniumylidene]-D-arabitol chloride], the “α-glucosidase (IC50) Maltase” value at Maltase was 1.04 µg/mL. Further, the values for the IC50 on Isomaltase and against Sucrase were 2.17 µM and 2.95 µM, respectively.

Regarding `CCCCCCCOC(CO)C(O)C[S+]1CC(O)C(O)C1CO` [Compound (Id), 1,4-Dideoxy-1,4-[(R)-[4-deoxy-2-O-(1-heptyl)-D-erythritol-4-yl]episulfoniumylidene]-D-arabitol chloride], the “α-glucosidase (IC50) Maltase” value on Maltase stood at 0.8 µg/mL. In addition, the half-inhibitory concentration (IC50) against Isomaltase was 0.707 µM; at Sucrase, 0.679 µM.

For the molecule `OCC(OCc1ccccc1)C(O)C[S+]1CC(O)C(O)C1CO` [Compound (Ig) (X = Cl), 1,4-Dideoxy-1,4-[(R)-[2-O-benzyl-4-deoxy-D-erythritol-4-yl]episulfoniumylidene]-D-arabitol chloride], on Maltase, the “α-glucosidase (IC50) Maltase” value is 0.58 µg/mL. The IC50 against Isomaltase was 0.579 µM; against Sucrase, 1.59 µM.

Regarding `Cc1ccc(COC(CO)C(O)C[S+]2CC(O)C(O)C2CO)cc1` [Compound (Ij), 1,4-Dideoxy-1,4-[(R)-[4-deoxy-2-O-(p-methylbenzyl)-D-erythritol-4-yl]episulfoniumylidene]-D-arabitol chloride], the “α-glucosidase (IC50) Maltase” value on Maltase turned out to be 0.86 µg/mL. In addition, the IC50 against Isomaltase is 1.89 µM; at Sucrase it was 3.06 µM.

As for `Cc1ccccc1COC(CO)C(O)C[S+]1CC(O)C(O)C1CO` [Compound (Ih), 1,4-Dideoxy-1,4-[(R)-[4-deoxy-2-O-(o-methylbenzyl)-D-erythritol-4-yl]episulfoniumylidene]-D-arabitol chloride], the “α-glucosidase (IC50) Maltase” value on Maltase came out at 0.66 µg/mL. Besides, the IC50 on Isomaltase is 1.34 µM; against Sucrase it was 1.14 µM.
